Values after ≈ are worked out from the molar mass of the structure shown. Numbered stars: 1 amine (or outer) side, 2 acyl side, 3 side chain; on linkers, the order of the positions; unused ones are H or OH. Peptide text beside a SMILES is read from it. * marks the point of attachment. C20 diacid = O=C(O)CCCCCCCCCCCCCCCCCCC(=O)*; C18 diacid = O=C(O)CCCCCCCCCCCCCCCCC(=O)*; γGlu = O=C(O)[C@H](CCC(=O)[*:2])N[*:1]; AEEA = NCCOCCOCC(=O)O

Solubility and solubility data for six compounds are collected here from US9593149B2, “Amylin and calcitonin receptor agonist” (Novo Nordisk A/S, priority 2014, dated 2017).

The nature of the data set: Assay (IV) determination of solubility. It counts as physicochemical. How it is done:
Assay (IV)—Determination of Solubility
The mimylin peptide was dissolved in water at ˜500 nmol/ml and mixed 1:1 with a series of buffers (100 mM glycylglycine pH 3.0, 100 mM glycylglycine pH 4.0, 100 mM glycylglycine pH 5.0, 100 mM bistrispropane pH 6.0, 100 mM bistrispropane pH 6.5, 100 mM bistrispropane pH 7.0, 100 mM bistrispropane pH 7.5, 100 mM bistrispropane pH 8.0).

Take `CC(C)C[C@H](NC(=O)CNC(=O)[C@H](CO)NC(=O)[C@H](C)NC(=O)CC[C@H](NC(=O)CCCCCCCCCCCCCCCCCCC(=O)O)C(=O)O)C(=O)N[C@@H](CO)C(=O)N[C@H](C(=O)N[C@@H](C)C(=O)N[C@@H](C)C(=O)N[C@@H](CC(C)C)C(=O)NCC(=O)N[C@@H](CCCNC(=N)N)C(=O)N[C@@H](CC(C)C)C(=O)N[C@@H](CO)C(=O)N[C@@H](CCC(N)=O)C(=O)N[C@@H](CCC(=O)O)C(=O)N[C@@H](CC(C)C)C(=O)N[C@@H](Cc1cnc[nH]1)C(=O)N[C@@H](CCC(=O)O)C(=O)N[C@@H](CC(C)C)C(=O)N[C@@H](CCC(=O)O)C(=O)N[C@H](C(=O)N[C@@H](Cc1ccc(O)cc1)C(=O)N1CCC[C@H]1C(=O)N[C@@H](CCCNC(=N)N)C(=O)N[C@H](C(=O)N[C@@H](CCC(=O)O)C(=O)N[C@H](C(=O)NCC(=O)N[C@@H](CO)C(=O)NCC(=O)N[C@H](C(=O)N[C@@H](Cc1ccc(O)cc1)C(N)=O)[C@@H](C)O)[C@@H](C)O)[C@@H](C)O)[C@@H](C)O)[C@@H](C)O` [compound 108, [N-terminal(C20 diacid-gGlu), des1, 4G, 15Q, 21E, 23Y, 30S, 31G, 32T, 33Y]mimylin] ({C20 diacid-γGlu}-ASGLSTAALGRLSQELHELETYPRTETGSGTY-NH2): the Solubility entry is, setting by setting: (pH 3.0) “≧200 μM”; (pH 4.0) “≧200 μM”; (pH 6.0) “≧200 μM”; (pH 6.5) “≧200 μM”; (pH 7.0) “≧200 μM”; (pH 7.5) “≧200 μM”. In addition, where the note is “pH 8.0”, the Solubility result is given as “≧200 μM”. In addition, the solubility at 18 h (pH 5.0) was determined as 65 µM (≈ 250 µg/mL).
As for `CC[C@H](C)[C@H](NC(=O)[C@H](CCC(=O)O)NC(=O)[C@H](CO)NC(=O)[C@H](C)NC(=O)[C@H](CCC(=O)O)NC(=O)CCCCCCCCCCCCCCCCC(=O)O)C(=O)N[C@@H](CO)C(=O)N[C@H](C(=O)N[C@@H](C)C(=O)N[C@@H](C)C(=O)N[C@@H](CC(C)C)C(=O)NCC(=O)N[C@@H](CCCNC(=N)N)C(=O)N[C@@H](CC(C)C)C(=O)N[C@@H](CO)C(=O)N[C@@H](C)C(=O)N[C@@H](CCC(=O)O)C(=O)N[C@@H](CC(C)C)C(=O)N[C@@H](Cc1cnc[nH]1)C(=O)N[C@@H](CCC(=O)O)C(=O)N[C@@H](CC(C)C)C(=O)N[C@@H](C)C(=O)N[C@H](C(=O)N[C@@H](CC(C)C)C(=O)N1CCC[C@H]1C(=O)N[C@@H](CCCNC(=N)N)C(=O)N[C@H](C(=O)N[C@@H](CCC(=O)O)C(=O)N[C@H](C(=O)NCC(=O)N1CCC[C@H]1C(=O)N[C@@H](CCC(=O)O)C(=O)N[C@@H](CO)C(=O)N1CCC[C@H]1C(N)=O)[C@@H](C)O)[C@@H](C)O)[C@@H](C)O)[C@@H](C)O` [Ex. #8, [N-terminal(C18 diacid), 5I]mimylin] ({C18 diacid}-EASEISTAALGRLSAELHELATLPRTETGPESP-NH2), the Solubility result by setting is: (pH 3.0) “≧200 μM”; (pH 6.0) “≧200 μM”; (pH 6.5) “≧200 μM”; (pH 7.0) “≧200 μM”; (pH 7.5) “≧200 μM”; (pH 8.0) “≧200 μM”. Also, the solubility at 18 h came to 94 µM (≈ 351 µg/mL) (pH 4.0) and 35 µM (≈ 131 µg/mL) (pH 5.0).
In the case of `CC(C)C[C@H](NC(=O)[C@H](C)NC(=O)[C@H](C)NC(=O)[C@@H](NC(=O)[C@H](CO)NC(=O)[C@H](CC(C)C)NC(=O)[C@H](CCC(=O)O)NC(=O)[C@H](CO)NC(=O)[C@H](C)NC(=O)[C@H](C)NC(=O)[C@H](CCC(=O)O)NC(=O)CC[C@H](NC(=O)CCCCCCCCCCCCCCCCCCC(=O)O)C(=O)O)[C@@H](C)O)C(=O)NCC(=O)N[C@@H](CCCNC(=N)N)C(=O)N[C@@H](CC(C)C)C(=O)N[C@@H](CO)C(=O)N[C@@H](C)C(=O)N[C@@H](CCC(=O)O)C(=O)N[C@@H](CC(C)C)C(=O)N[C@@H](Cc1cnc[nH]1)C(=O)N[C@@H](CCC(=O)O)C(=O)N[C@@H](CC(C)C)C(=O)N[C@@H](C)C(=O)N[C@H](C(=O)N[C@@H](Cc1ccc(O)cc1)C(=O)N1CCC[C@H]1C(=O)N[C@@H](CCCNC(=N)N)C(=O)N[C@H](C(=O)N[C@@H](CCC(=O)O)C(=O)N[C@H](C(=O)NCC(=O)N[C@@H](CO)C(=O)NCC(=O)N[C@@H](CO)C(=O)N1CCC[C@H]1C(N)=O)[C@@H](C)O)[C@@H](C)O)[C@@H](C)O` [compound 83, [N-terminal(C20 diacid-gGlu), −1E, 1A, 23Y, 30S, 31G]mimylin] ({C20 diacid-γGlu}-EAASELSTAALGRLSAELHELATYPRTETGSGSP-NH2), the Solubility result (pH 3.0) is listed as “≧200 μM”; the Solubility result (pH 4.0) is recorded as “≧200 μM”; the Solubility result (pH 5.0) is recorded as “≧200 μM”; the Solubility entry (pH 6.0) is listed as “≧200 μM”; the Solubility result (pH 6.5) is given as “≧200 μM”; the Solubility result (pH 7.0) is given as “≧200 μM”. Further, the Solubility result by setting is: (pH 7.5) “≧200 μM”; (pH 8.0) “≧200 μM”.
For `CC(C)C[C@H](NC(=O)CC[C@H](NC(=O)CCCCCCCCCCCCCCCCCCC(=O)O)C(=O)O)C(=O)N[C@@H](CO)C(=O)NCC(=O)N[C@@H](CC(C)C)C(=O)N[C@@H](CO)C(=O)N[C@H](C(=O)N[C@@H](C)C(=O)N[C@H](C(=O)N[C@@H](CC(C)C)C(=O)NCC(=O)N[C@@H](CCCNC(=N)N)C(=O)N[C@@H](CC(C)C)C(=O)N[C@@H](CO)C(=O)N[C@@H](CCC(N)=O)C(=O)N[C@@H](CCC(=O)O)C(=O)N[C@@H](CC(C)C)C(=O)N[C@@H](Cc1cnc[nH]1)C(=O)N[C@@H](CCC(=O)O)C(=O)N[C@@H](CC(C)C)C(=O)N[C@@H](CCC(N)=O)C(=O)N[C@H](C(=O)N[C@@H](Cc1ccc(O)cc1)C(=O)N1CCC[C@H]1C(=O)N[C@@H](CCCNC(=N)N)C(=O)N[C@H](C(=O)N[C@@H](CCC(=O)O)C(=O)N[C@H](C(=O)NCC(=O)N[C@@H](CO)C(=O)N[C@@H](CCC(N)=O)C(=O)N[C@H](C(=O)N[C@@H](Cc1ccc(O)cc1)C(N)=O)[C@@H](C)O)[C@@H](C)O)[C@@H](C)O)[C@@H](C)O)C(C)C)[C@@H](C)O` [compound 127, [N-terminal(C20 diacid-gGlu), des1, 2L, 4G, 9V, 15Q, 21Q, 23Y, 30S, 31Q, 32T, 33Y]mimylin] ({C20 diacid-γGlu}-LSGLSTAVLGRLSQELHELQTYPRTETGSQTY-NH2), the Solubility entry runs as follows: (pH 3.0) “≧200 μM”; (pH 6.0) “≧200 μM”; (pH 6.5) “≧200 μM”; (pH 7.0) “≧200 μM”; (pH 7.5) “≧200 μM”; (pH 8.0) “≧200 μM”. The solubility at 18 h (pH 4.0) turned out to be 31 µM (≈ 124 µg/mL).
Regarding `CC(C)C[C@H](NC(=O)[C@H](CCC(=O)O)NC(=O)[C@H](Cc1cnc[nH]1)NC(=O)[C@H](CC(C)C)NC(=O)[C@H](CCC(=O)O)NC(=O)[C@H](C)NC(=O)[C@H](CO)NC(=O)[C@H](CC(C)C)NC(=O)[C@H](CCCCN)NC(=O)CNC(=O)[C@H](CC(C)C)NC(=O)[C@@H](NC(=O)[C@H](C)NC(=O)[C@@H](NC(=O)[C@H](CO)NC(=O)[C@H](CC(C)C)NC(=O)[C@H](CCC(=O)O)NC(=O)[C@H](CO)NC(=O)[C@H](C)NC(=O)[C@H](CCC(=O)O)NC(=O)CCCCCCCCCCCCCCCCC(=O)O)[C@@H](C)O)C(C)C)C(=O)N[C@@H](C)C(=O)N[C@H](C(=O)N[C@@H](CC(C)C)C(=O)N1CCC[C@H]1C(=O)N[C@@H](CCCCN)C(=O)N[C@H](C(=O)N[C@@H](CCC(=O)O)C(=O)N[C@H](C(=O)NCC(=O)N1CCC[C@H]1C(=O)N[C@@H](CCC(=O)O)C(=O)N[C@@H](CO)C(=O)N1CCC[C@H]1C(N)=O)[C@@H](C)O)[C@@H](C)O)[C@@H](C)O` [compound 39, [N-terminal(C18 diacid), 9V, 12K, 25K]mimylin] ({C18 diacid}-EASELSTAVLGKLSAELHELATLPKTETGPESP-NH2), the Solubility entry reads like this: (pH 3.0) “≧200 μM”; (pH 4.0) “≧200 μM”; (pH 5.0) “≧200 μM”; (pH 6.0) “≧200 μM”; (pH 6.5) “≧200 μM”; (pH 7.0) “≧200 μM”. Moreover, the Solubility entry is given as “≧200 μM” (pH 7.5) and “≧200 μM” (pH 8.0).
On to `CC(C)C[C@H](NC(=O)[C@H](C)NC(=O)[C@H](C)NC(=O)[C@@H](NC(=O)[C@H](CO)NC(=O)[C@H](CC(C)C)NC(=O)[C@H](CCC(=O)O)NC(=O)[C@H](CO)NC(=O)[C@H](C)NC(=O)COCCOCCNC(=O)COCCOCCNC(=O)COCCOCCNC(=O)COCCOCCNC(=O)CC[C@H](NC(=O)CCCCCCCCCCCCCCCCCCC(=O)O)C(=O)O)[C@@H](C)O)C(=O)NCC(=O)N[C@@H](CCCNC(=N)N)C(=O)N[C@@H](CC(C)C)C(=O)N[C@@H](CO)C(=O)N[C@@H](C)C(=O)N[C@@H](CCC(=O)O)C(=O)N[C@@H](CC(C)C)C(=O)N[C@@H](Cc1cnc[nH]1)C(=O)N[C@@H](CCC(=O)O)C(=O)N[C@@H](CC(C)C)C(=O)N[C@@H](C)C(=O)N[C@H](C(=O)N[C@@H](CC(C)C)C(=O)N1CCC[C@H]1C(=O)N[C@@H](CCCNC(=N)N)C(=O)N[C@H](C(=O)N[C@@H](CCC(=O)O)C(=O)N[C@H](C(=O)NCC(=O)N[C@@H](CO)C(=O)NCC(=O)N[C@@H](CO)C(=O)N1CCC[C@H]1C(N)=O)[C@@H](C)O)[C@@H](C)O)[C@@H](C)O` [compound 44, [N-terminal(C20 diacid-gGlu-4xOEG), des1, 30S, 31G]mimylin] ({C20 diacid-γGlu-AEEA-AEEA-AEEA-AEEA}-ASELSTAALGRLSAELHELATLPRTETGSGSP-NH2), for which the Solubility entry is given as “≧200 μM” (pH 3.0); “≧200 μM” (pH 4.0); “≧200 μM” (pH 5.0); “≧200 μM” (pH 6.0); “≧200 μM” (pH 6.5); “≧200 μM” (pH 7.0). For the same compound, the Solubility result was “≧200 μM” (pH 7.5) and “≧200 μM” (pH 8.0).

As a reminder, the solubility is the dissolved amount per volume that the medium holds.
